≈ marks a conversion by molar mass, not a printed value. Entries after “also recorded” stand apart in the source; their conditions may differ.
How the values were obtained:
[1] = Modified Draize test (ocular irritation); assay type: in vivo, New Zealand albino rabbits; settings: single eye drop instillation, rabbit; observed 0.5-6 h
Description: Male New Zealand albino rabbits weighing approximately 2.6-3 Kg, kept in standard housing conditions, were used for in vivo studies. The animals were treated as prescribed in the guidelines of the European Community Council Directive 2010/63. The animal protocol was approved by the Italian Ministry of University and Research (authorisation n. 192/2019-PR). The eye drops were prepared in CB (200 mOsm/kg). […] (588 mOsm/kg). A suspension of plain DIA (0.34 M) in CB was used as a reference sample (230 mOsm/kg). The samples' osmolality was checked using a Roebling osmometer (calibrated with NaCl 300 mOsm/kg H2O). To assess the irritation of the rabbits' eyes after instillation of the eye drops under study, a modified Draize test was performed, following the procedure previously described in [50]. This irritation test was conducted using a 0 (absence) to 3 (maximum) clinical rating scale for lachrymation, oedema, and conjunctival redness. For each of the samples under study, the test was performed on three rabbits, through a single instillation of the eye drops (50 μL) per rabbit eye, while the untreated contralateral eye was used as a control. […] An overall irritation index (Iirr) was calculated by adding the total clinical evaluation scores for each observation time. A score of 2 or 3 in any category or an Iirr greater than 4 was considered an indicator of clinically significant irritation.

[2] = tested on: P. aeruginosa ATCC 27853; assay: MIC determination (microdilution); assay type: cell-based, Pseudomonas aeruginosa
Description: (§1) A clinical isolate of S. aureus (W4) and the reference strain of P. aeruginosa ATCC 27853 were used in the study. For the preparation of stock cultures, bacterial strains were grown in Luria–Bertani broth (LB, Oxoid, Basingstoke, Hampshire, UK) until the late-log phase, subdivided into aliquots, and kept frozen at −80 °C until use. Identification and susceptibility testing of the S. aureus W4 strain were performed using MALDI-TOF (Bruker Daltonics, Bremen, Germany) and the BD Phoenix susceptibility testing system (BD, Milan, Italy), respectively.
(§2) The susceptibility of the bacterial strains to each of the tested compounds was assessed in terms of MIC values according to the standard microdilution method (Clinical and Laboratory Standards Institute–CLSI, 2018), with some modifications. Briefly, the bacteria were grown in LB broth until the exponential growth phase and then diluted in the same medium to reach a final density of 5 × 10^6 CFU/mL. A volume of 10 μL of the bacterial suspensions was added to 90 μL of LB in a 96-well plate in the absence (viability control) or presence of the test compound at different concentrations.

[3] = Stabilisation of DIA against hydrolysis to Rhe under simulated physiological conditions; assay type: physicochemical; settings: pH 7.4, 37 °C; for degradation of DIA / DIA degraded: 6 h
Description: The stabilising effect of Bet6 and Carn6 on DIA’s hydrolysis was investigated under simulated in vitro conditions. […] After equilibrating for 30 min at 25 °C, the samples were transferred to a thermostatic shaking bath at 37 °C, and their pH was rapidly brought to 7.4 by adding 10 N NaOH. At defined time intervals (30 min, 1 h, 2 h, 3 h, 4 h, 5 h, and 6 h), a 500 µL sampling was performed, and the hydrolysis was blocked by adding 2 µL of 37% HCl, bringing the pH back to 5. The amount of Rhe formed over time was evaluated spectrophotometrically. Degradation of DIA was expressed in mol% of Rhe formation. The stabilising capability was compared to that obtained with HP-β-CD by applying the protocol to DIA/HP-β-CD solutions in CB, with molar ratios of 1:3, 1:5, and 1:10.

[4] = tested on: S. aureus (clinical isolate W4); assay: MIC determination (microdilution); assay type: cell-based, Staphylococcus aureus
Description: as §1, §2

[5] = DIA elimination and degradation kinetics in tear fluid; assay type: in vivo, New Zealand albino rabbits; settings: one drop (50 μL), 0.27 M IL, n = 10
Description: Male New Zealand albino rabbits weighing approximately 2.6–3 Kg, kept in standard housing conditions, were used for in vivo studies. The animals were treated as prescribed in the guidelines of the European Community Council Directive 2010/63. The animal protocol was approved by the Italian Ministry of University and Research (authorisation n. 192/2019-PR). The eye drops were prepared in CB (200 mOsm/kg). […] A suspension of plain DIA (0.34 M) in CB was used as a reference sample (230 mOsm/kg). The samples’ osmolality was checked using a Roebling osmometer (calibrated with NaCl 300 mOsm/kg H2O).
[…] CB was used as blank control. At predefined intervals (i.e., 2, 4, 6, 8, 10, 15, 20, 25, and 30 min from instillation), tear fluid samples were taken from the lower margin strip using 1 µL disposable glass capillaries (Microcaps, Drummond Scientific Co., USA), which were washed with 1 µL and diluted with 100 µL of CB. The diluted samples were analysed by HPLC. […] For each of the three formulations studied, elimination curves were constructed, each determined from a single eye of different rabbits.

[6] = tested on: S. aureus W4; assay: Killing assay; assay type: cell-based, Staphylococcus aureus; settings: 3 h incubation in 5% TSB; DIA 0.34 M, ILs 0.27 M
Description: To this end, the bacterial strains were grown in TSB until the exponential phase, and approximately 5 × 10^4 CFU/mL-contained in 10 μL-was added to 5 μL of TSB, 35 μL of water, and 50 μL of one of the following solutions corresponding to the eye drop compositions tested in vivo: Bet6 or Carn6 with 0.27 M or 0.34 M DIA, plain DIA (0.34 M) solution, or plain Bet6/plain Carn6, both at 0.27 M. All solutions were prepared in CB. The samples were incubated at 37 °C with shaking for 3 h. A sample containing 0.6% DMSO (corresponding to the highest concentration of DMSO tested) was used as a control. Following incubation, the samples were diluted 10-fold in LB and plated on tryptone soy agar (TSA, Oxoid) to determine the number of CFU. Bactericidal activity was defined as a reduction of at least 3 Log10 in the number of viable bacteria as compared to the inoculum.

MIC ([2]; Pseudomonas aeruginosa, ATCC27853, planktonic cells, 24 h, 37 °C): > 50 mg/L
degradation of DIA ([3]; 0.018 M Bet6): 39%
DIA degraded ([3]; 0.018 M Carn6 solution): 91%
degradation of DIA ([3]; 0.04 M Bet6): 73%
DIA degraded ([3]; 0.04 M Carn6 solution): 98%
DIA preserved for 6 h ([3]; 0.27 M Bet6 solution (nanoaggregates)): 71%
DIA preserved for 6 h ([3]; 0.35 M Bet6 solution (nanoaggregates)): 85%
DIA not hydrolysed after 6 h ([3]; Carn6 nanoaggregates present (0.27 M)): 26%
DIA not hydrolysed after 6 h ([3]; Carn6 nanoaggregates present (0.35 M)): 34%
MIC ([4]; Staphylococcus aureus, planktonic cells, 24 h, 37 °C): 50 mg/L (≈ 136 µM)
MRT ([5]; male, New Zealand albino, topical, 50 µL (one drop) of 0.34 M DIA, DIA in rabbit tear fluid): 4.55 min
AUC (DIA concentration in tear fluid vs time) ([5]; rabbit tear fluid, 0.34 M DIA): 0.06 ± 0.002
SMILES: CC(=O)Oc1cccc2c1C(=O)c1c(OC(C)=O)cc(C(=O)O)cc1C2=O [DIA, diacerein]
ocular irritation signs (conjunctival redness, chemosis/oedema, secretion) [1]: modest redness of the conjunctiva and a slight conjunctival chemosis, but no secretion; also recorded: No redness, secretions, or conjunctival oedema
antibacterial effect ([2]; in words (discussion)): inactive
antibacterial effect ([4]; in words (discussion)): exert antibacterial effects
bactericidal effect [6]: no evident bactericidal effect
